Assay results published in patent US20090203700A1, “Azolylmethyloxiranes, Their Use for Controlling Phytopathogenic Fungi, and Compositions Comprising Them” (BASF SE, priority 2006, published 2009).

Tests used:
Pyrenophora teres = assay: Activity against net blotch of barley caused by Pyrenophora teres, 1 day protective application (Pyrnte P1); format: in vivo, Pyrenophora [syn. Drechslera] teres on barley; details: 250 ppm active compound, sprayed to runoff on potted barley seedlings, inoculated after 24 hours, assessed after 6 days; untreated plants 90% infected
Description: The active compounds were prepared separately or jointly as a stock solution comprising 25 mg of active compound which was made up to 10 ml using a mixture of acetone and/or DMSO and the emulsifier Wettol EM 31 (wetting agent having emulsifying and dispersing action based on ethoxylated alkylphenols) in a volume ratio of solvent/emulsifier of 99:1. The mixture was then made up to 100 ml with water. This stock solution was diluted with the solvent/emulsifier/water mixture described to give the concentration of active compound stated below. Leaves of potted barley seedlings were sprayed to runoff point with an aqueous suspension having the active compound concentration stated below. 24 hours after the spray coating had dried on, the test plants were inoculated with an aqueous spore suspension of Pyrenophora [syn. Drechslera] teres, the net blotch pathogen. The test plants were then placed in a greenhouse at temperatures between 20 and 24° C. and at 95 to 100% relative atmospheric humidity. After 6 days, the extent of the development of the disease was determined visually in % infection of the entire leaf area.

Puccinia recondita = assay: Protective activity against Puccinia recondita on wheat (brown rust of wheat) (Puccrt P1); format: in vivo; details: 250 ppm active compound, sprayed to runoff on potted wheat seedlings, inoculated next day; untreated plants 90% infected
Description: The active compounds were prepared separately or jointly as a stock solution comprising 25 mg of active compound which was made up to 10 ml using a mixture of acetone and/or DMSO and the emulsifier Wettol EM 31 (wetting agent having emulsifying and dispersing action based on ethoxylated alkylphenols) in a volume ratio of solvent/emulsifier of 99:1. The mixture was then made up to 100 ml with water. This stock solution was diluted with the solvent/emulsifier/water mixture described to give the concentration of active compound stated below. Leaves of potted wheat seedlings were sprayed to runoff point with an aqueous suspension having the active compound concentration stated below. The next day, the treated plants were inoculated with a spore suspension of brown rust of wheat (Puccinia recondita). The plants were then placed in a chamber with high atmospheric humidity (90 to 95%) at 20 to 22° C. for 24 hours. During this time, the spores germinated and the germ tubes penetrated into the leaf tissue. The next day, the test plants were returned to the greenhouse and cultivated at temperatures between 20 and 22° C. and at 65 to 70% relative atmospheric humidity for a further 7 days. The extent of the rust fungus development on the leaves was then determined visually.

Fc1ccc([C@@]2(Cn3cncn3)O[C@@H]2c2cccnc2Cl)cc1 (racemic) [3-{(2RS,3SR)-3-[(1H-1,2,4-triazol-1-yl)methyl]-3-[4-fluorophenyl]oxiran-2-yl}-2-chloropyridine]
infection (% infection of the entire leaf area, determined visually) (Pyrenophora teres): not more than 20% | infection (extent of rust fungus development on the leaves, determined visually) (Puccinia recondita): not more than 10%
